Test results taken from US10842804B2 (MEDIGEN BIOTECHNOLOGY CORP., priority 2017, dated 2020).

Assay: Phase III trial: safety profiles, treatment completion and compliance
Details: in vivo
Description: After signing the consent form, the eligibility of each patient was verified according to the enrollment criteria by checking his/her medical records and current disease conditions. Eligible patients were stratified by tumor size (<5 cm vs. ≥5 cm) and vascular invasion (no vs. yes) and then randomized at a ratio of 1:1 within strata to receive PI-88 (160 mg/day) or a placebo by using a centralized interactive web response system (Cenduit Interactive Response Technology; Cenduit, Durham, N.C., USA).
PI-88 or placebo was administered in a single subcutaneous injection each day for four consecutive days per week for 3 weeks out of every 4 weeks (a cycle with 4-weeks). The days of injection were the same in every administration week. After an initial training period of 1-8 days, participants self-administered the study drug at home. Participants received treatment for up to 52 weeks and were followed until 96 weeks.
If the antiheparin antibody test was positive, the participant was asked to permanently discontinue the treatment.
The distributional properties of continuous variables are expressed as mean t standard deviation, categorical variables are presented as frequency and percentage (%), and the survival curves of the DFS period were estimated using the Kaplan-Meier method. Baseline demographic and clinical characteristics were compared between the PI-88 and placebo groups. […]

## muparfostat [PI-88]
  fatal AEs during the study treatment period: No patients
